Experimental data reported in ChEMBL document CHEMBL6078704, “Redesigning Berberines and Sanguinarines to Target Soluble Epoxide Hydrolase for Enhanced Anti-Inflammatory Efficacy” (J Med Chem, 2024).

Columns and labels:
[1] = molecular target: T1, Bifunctional epoxide hydrolase 2 (Mus musculus, UniProt P34914); assay: Inhibition of male C57BL/6J mouse brain sEH assessed as quantity of 14,15-DHET level measured after 15 mins incubation by HPLC-MS analysis
T1 sequence (P34914 whole entry): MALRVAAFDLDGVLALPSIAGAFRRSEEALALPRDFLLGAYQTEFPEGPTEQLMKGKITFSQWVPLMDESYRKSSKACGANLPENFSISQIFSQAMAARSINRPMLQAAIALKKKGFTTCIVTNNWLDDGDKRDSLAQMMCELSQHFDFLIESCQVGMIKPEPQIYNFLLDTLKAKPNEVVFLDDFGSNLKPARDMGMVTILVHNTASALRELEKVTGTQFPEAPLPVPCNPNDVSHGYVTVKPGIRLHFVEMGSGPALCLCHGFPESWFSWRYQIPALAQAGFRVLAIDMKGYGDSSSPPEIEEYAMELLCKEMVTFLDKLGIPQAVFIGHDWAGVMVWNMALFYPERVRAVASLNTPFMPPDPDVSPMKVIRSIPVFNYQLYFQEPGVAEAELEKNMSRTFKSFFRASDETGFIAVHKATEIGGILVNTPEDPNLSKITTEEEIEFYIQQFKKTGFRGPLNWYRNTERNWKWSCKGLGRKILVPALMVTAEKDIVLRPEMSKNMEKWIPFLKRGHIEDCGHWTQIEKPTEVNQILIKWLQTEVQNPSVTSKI

[2] = tested on: HepG2; assay: Cytotoxicity against human HepG2 cells assessed as cell viability at 0.5 to 5 uM measured after 48 hrs by CCK-8 assay; format: toxicity, cell-based; settings: hepg2, 48 h, dose 0.5-5 µM
[3] = tested on: HEK-293T; assay: Cytotoxicity against human 293T cells assessed as cell viability at 0.5 to 5 uM measured after 48 hrs by CCK-8 assay; format: toxicity, cell-based; settings: dose 0.5-5 µM
[4] = tested on: Staphylococcus aureus; assay: Antimicrobial activity against methicillin-resistant Staphylococcus aureus 19B120 by microbroth dilution method; format: functional
[5] = tested on: Staphylococcus aureus; assay: Antimicrobial activity against Staphylococcus aureus ATCC 29213 by microbroth dilution method; format: functional
[6] = tested on: Mus musculus; assay: Anti-inflammatory activity in carrageen-induced paw edema BALB/c mouse model assessed as inhibition of soft tissue edema and inflammation measured immediately at 20 mg/kg, po measured at 1 to 4 hrs; format: functional; settings: time 1-4 hrs
[7] = tested on: Mus musculus; assay: Anti-inflammatory activity in carrageen-induced paw edema BALB/c mouse model assessed as inhibition of soft tissue edema and inflammation measured immediately at 0.5 mg/kg, ip measured up to 6 hrs; format: functional
[8] = tested on: Mus musculus; assay: Antiinflammatory activity against cerulein-induced acute pancreatitis in CD1 mouse assessed as increase in plasma 8,9-EET/DHET ratio at 20 mg/kg, ip pretreated with cerulein followed by compound injection on 30 and 150 mins and measured 6 hrs post cerulein treatment relative to model group; format: functional; settings: time 30-360 min
[9] = tested on: Mus musculus; assay: Antiinflammatory activity against cerulein-induced acute pancreatitis in CD1 mouse assessed as increase in plasma 14,15-EET/DHET ratio at 20 mg/kg, ip pretreated with cerulein followed by compound injection on 30 and 150 mins and measured 6 hrs post cerulein treatment relative to model group; format: functional; settings: time 30-360 min
[10] = tested on: Mus musculus; assay: Antiinflammatory activity against cerulein-induced acute pancreatitis in CD1 mouse assessed as increase in pancreatic 14,15-EET/DHET ratio at 20 mg/kg, ip pretreated with cerulein followed by compound injection on 30 and 150 mins and measured 6 hrs post cerulein treatment relative to model group; format: functional; settings: time 30-360 min
[11] = tested on: Mus musculus; assay: Antiinflammatory activity against cerulein-induced acute pancreatitis in CD1 mouse assessed as increase in pancreatic 8,9-EET/DHET ratio at 20 mg/kg, ip pretreated with cerulein followed by compound injection on 30 and 150 mins and measured 6 hrs post cerulein treatment relative to model group; format: functional; settings: time 30-360 min

COc1cc2c(cc1OC)C1Cc3ccc(NC(=O)Nc4ccc(OC(F)(F)F)cc4)cc3CN1CC2 (stereo unspecified)
IC50 [1]: 40.7 nM

O=C(NCC1CCOCC1)Nc1ccc2c(c1)CN1CCc3cc4c(cc3C1C2)OCO4 (stereo unspecified)
IC50 [1]: 15.9 nM

CCC(=O)N1CCC(NC(=O)Nc2ccc3c(c2)CN2CCc4cc5c(cc4C2C3)OCO5)CC1 (stereo unspecified)
IC50 [1]: 97.1 nM

CN1Cc2cc(NC(=O)NCC3CCOCC3)ccc2-c2ccc3ccccc3c21
Activity [2]: Non-toxic
IC50 [1]: 5.56 nM
Activity [3]: Non-toxic

CC(C)CNC(=O)Nc1ccc2c(c1)CN(C)c1c-2ccc2ccccc12
IC50 [1]: 20.5 nM

CN1Cc2cc(NC(=O)NCc3ccc(OC(F)(F)F)cc3)ccc2-c2ccc3ccccc3c21
IC50 [1]: 12.1 nM

CCC(=O)N1CCC(CNC(=O)Nc2ccc3c(c2)CN(C)c2c-3ccc3ccccc23)CC1
Activity [2]: Non-toxic
IC50 [1]: 6.94 nM
Activity [3]: Non-toxic

O=C(NCc1ccc(OC(F)(F)F)cc1)Nc1ccc2c(c1)CN1CCc3cc4c(cc3C1C2)OCO4 (stereo unspecified)
IC50 [1]: 1.49 nM

COc1cc2c(cc1OC)-c1cc3ccc(NC(=O)NCc4ccc(OC(F)(F)F)cc4)cc3c[n+]1CC2
MIC [4]: 8 µg/mL
IC50 [1]: 210 nM
MIC [5]: 8 µg/mL

CCC(=O)N1CCC(NC(=O)Nc2ccc(OC(F)(F)F)cc2)CC1
inhibition in vivo at 20 mg/kg [6]: 25%
inhibition in vivo at 0.5 mg/kg [7]: 15%

CCC(=O)N1CCC(CNC(=O)Nc2ccc3c(c2)CN2CCc4cc(OC)c(OC)cc4C2C3)CC1 (stereo unspecified)
IC50 [1]: 18.8 nM

COc1cc2c(cc1OC)CN1CCc3cc(NC(=O)NCc4ccc(OC(F)(F)F)cc4)ccc3[C@H]1C2
fold change (FC) [8]: 2
fold change (FC) [9]: 3.3
Activity [2]: Non-toxic
fold change (FC) [10]: 18.5
fold change (FC) [11]: 6.7
MIC [4]: > 64 µg/mL
MIC [5]: > 64 µg/mL
Activity [3]: Non-toxic

CCC(=O)N1CCC(CNC(=O)Nc2ccc3c(c2)CCN2Cc4cc(OC)c(OC)cc4CC32)CC1 (stereo unspecified)
IC50 [1]: 42.7 nM

COc1cc2c(cc1OC)C1Cc3ccc(NC(=O)NCc4ccc(S(N)(=O)=O)cc4)cc3CN1CC2 (stereo unspecified)
IC50 [1]: 17.3 nM

CCC(=O)N1CCC(CNC(=O)Nc2ccc3c(c2)CN2CCc4cc5c(cc4C2C3)OCO5)CC1 (stereo unspecified)
Activity [2]: Non-toxic
IC50 [1]: 15.6 nM
Activity [3]: Non-toxic

COc1cc2c(cc1OC)CN1CCc3cc(NC(=O)NCC4CCOCC4)ccc3C1C2 (stereo unspecified)
IC50 [1]: 21.2 nM

COc1cc2c(cc1OC)CN1CCc3cc(NC(=O)NCc4ccc(OC(F)(F)F)cc4)ccc3[C@@H]1C2
inhibition in vivo at 20 mg/kg [6]: 27%

COc1cc2c(cc1OC)C1Cc3ccc(NC(=O)NCc4ccc(OC(F)(F)F)cc4)cc3CN1CC2 (stereo unspecified)
Activity [2]: Non-toxic
IC50 [1]: 0.86 nM
inhibition in vivo at 0.5 mg/kg [7]: 35%
Activity [3]: Non-toxic

COc1ccc2cc3[n+](cc2c1OC)CCc1cc2c(cc1-3)OCO2 [BERBERINE]
MIC [4]: 32 µg/mL
MIC [5]: 64 µg/mL

CCC(=O)N1CCC(NC(=O)Nc2ccc3c(c2)CN2CCc4cc(OC)c(OC)cc4C2C3)CC1 (stereo unspecified)
IC50 [1]: 143 nM

COc1cc2c(cc1OC)C1Cc3ccc(NC(=O)NCC4CCOCC4)cc3CN1CC2 (stereo unspecified)
IC50 [1]: 19.4 nM

COc1cc2c(cc1OC)CN1CCc3cc(NC(=O)NCc4ccc(OC(F)(F)F)cc4)ccc3C1C2 (stereo unspecified)
Activity [2]: Non-toxic
IC50 [1]: 2.83 nM
inhibition in vivo at 0.5 mg/kg [7]: 35%
Activity [3]: Non-toxic

O=C(NCc1ccc(OC(F)F)cc1)Nc1ccc2c(c1)CN1CCc3cc4c(cc3C1C2)OCO4 (stereo unspecified)
Activity [2]: Non-toxic
IC50 [1]: 0.67 nM
Activity [3]: Non-toxic

COc1cc2c(cc1OC)C1Cc3ccc(NC(=O)NCC4COC4)cc3CN1CC2 (stereo unspecified)
IC50 [1]: 2650 nM

COc1cc2c(cc1OC)C1Cc3ccc(NC(=O)NCc4cccc(OC(F)(F)F)c4)cc3CN1CC2 (stereo unspecified)
Activity [2]: Non-toxic
IC50 [1]: 2.55 nM
inhibition [7]: Active; Reduced Inhibition In Later Stages Of Experiment
Activity [3]: Non-toxic

COc1cc2c(cc1OC)CN1CCc3cc(NC(=O)NCc4ccc(OC(F)F)cc4)ccc3C1C2 (stereo unspecified)
Activity [2]: Non-toxic
IC50 [1]: 0.73 nM
Activity [3]: Non-toxic

COc1cc2c(cc1OC)C1Cc3ccc(NC(=O)NCc4ccc(OC(F)F)cc4)cc3CN1CC2 (stereo unspecified)
Activity [2]: Non-toxic
IC50 [1]: 1.33 nM
Activity [3]: Non-toxic

CC(C)CNC(=O)Nc1ccc2c(c1)CN1CCc3cc4c(cc3C1C2)OCO4 (stereo unspecified)
IC50 [1]: 9.98 nM

COc1cc2c(cc1OC)C1Cc3ccc(NC(=O)NCc4ccc(S(C)(=O)=O)cc4)cc3CN1CC2 (stereo unspecified)
Activity [2]: Non-toxic
IC50 [1]: 6.13 nM
inhibition in vivo at 0.5 mg/kg [7]: 25%
Activity [3]: Non-toxic

COc1cc2c(cc1OC)C1Cc3ccc(NC(=O)NC[C@@H]4CCCO4)cc3CN1CC2 (stereo partly specified)
IC50 [1]: 54.3 nM

COc1cc2c(cc1OC)-c1cc3ccc(NC(=O)NCc4ccc(OC(F)(F)F)cc4)cc3c(=O)n1CC2
IC50 [1]: 37.6 nM

COc1cc2c(cc1OC)C1Cc3ccc(NC(=O)NCC4CCCCC4)cc3CN1CC2 (stereo unspecified)
IC50 [1]: 4.98 nM

O=C(NCc1cccc(OC(F)(F)F)c1)Nc1ccc2c(c1)CN1CCc3cc4c(cc3C1C2)OCO4 (stereo unspecified)
IC50 [1]: 2.34 nM

COc1cc2cc3[n+](cc2cc1OC)CCc1cc(NC(=O)NCc2ccc(OC(F)(F)F)cc2)ccc1-3.[Cl-]
MIC [4]: 4 µg/mL
IC50 [1]: 39.1 nM
MIC [5]: 8 µg/mL
